Numbers after ± are expanded uncertainties.
Assay: xn = mol fraction of the nth substance listed
Conditions: Liquid, Vibrating tube method

CCCCCCCCCC [decane] + COC(=O)OC
mass density [kg/m3]
Conditions	x2 = 0.0438	x2 = 0.11	x2 = 0.2348	x2 = 0.3516	x2 = 0.3944	x2 = 0.557	x2 = 0.8035	x2 = 0.95
288.15 K, 100 kPa	739 ± 0.3	749 ± 0.3	769.2 ± 0.3	792 ± 0.3	801.9 ± 0.3	844.5 ± 0.4	944.4 ± 0.4	1034.2 ± 0.4
288.15 K, 5000 kPa	742.7 ± 0.3	753.6 ± 0.3	773.1 ± 0.3	796 ± 0.3	805.9 ± 0.3	848.7 ± 0.4	948.8 ± 0.4	1038.5 ± 0.4
288.15 K, 10000 kPa	746.2 ± 0.4	757.2 ± 0.4	776.8 ± 0.4	799.9 ± 0.4	809.8 ± 0.4	852.6 ± 0.4	953.1 ± 0.4	1042.8 ± 0.4
288.15 K, 20000 kPa	752.7 ± 0.5	763.9 ± 0.4	783.7 ± 0.4	807 ± 0.4	817 ± 0.4	858.8 ± 0.4	963.1 ± 0.4	1050.8 ± 0.4
288.15 K, 30000 kPa	758.8 ± 0.5	769.8 ± 0.5	790 ± 0.5	813.4 ± 0.5	823.5 ± 0.5	865 ± 0.4	971.2 ± 0.4	1058.2 ± 0.4
288.15 K, 40000 kPa	764.3 ± 0.6	775.8 ± 0.6	796.1 ± 0.6	819.7 ± 0.5	829.3 ± 0.5	872.6 ± 0.5	977.8 ± 0.4	1065.3 ± 0.4
298.15 K, 100 kPa	731.3 ± 0.3	741.9 ± 0.3	760.8 ± 0.3	783.2 ± 0.3	793.3 ± 0.3	831.4 ± 0.3	932.1 ± 0.3	1021.4 ± 0.4
298.15 K, 5000 kPa	735.6 ± 0.3	746.2 ± 0.3	765.5 ± 0.3	787.9 ± 0.3	798 ± 0.3	836.7 ± 0.3	937.6 ± 0.3	1026.5 ± 0.4
298.15 K, 10000 kPa	739 ± 0.4	749.7 ± 0.4	769 ± 0.4	791.4 ± 0.4	801.8 ± 0.4	840.5 ± 0.4	942.1 ± 0.3	1030.7 ± 0.4
298.15 K, 20000 kPa	745.9 ± 0.5	756.6 ± 0.4	776.2 ± 0.4	799 ± 0.4	809.4 ± 0.4	848.3 ± 0.4	951.1 ± 0.4	1039 ± 0.4
298.15 K, 30000 kPa	752.2 ± 0.5	763.1 ± 0.5	782.9 ± 0.5	805.9 ± 0.5	816.6 ± 0.5	856.1 ± 0.4	959.2 ± 0.4	1047 ± 0.4
298.15 K, 40000 kPa	758.1 ± 0.6	769 ± 0.6	789 ± 0.6	812.2 ± 0.5	823 ± 0.5	863.2 ± 0.5	966.8 ± 0.4	1054.4 ± 0.4
308.15 K, 100 kPa	723.6 ± 0.3	733.9 ± 0.3	752.5 ± 0.3	774.3 ± 0.3	783.8 ± 0.3	820.2 ± 0.3	920.7 ± 0.3	1008.8 ± 0.3
308.15 K, 5000 kPa	727.7 ± 0.4	738.2 ± 0.3	756.9 ± 0.3	778.9 ± 0.3	788.5 ± 0.3	825.6 ± 0.3	926.3 ± 0.3	1013.8 ± 0.4
308.15 K, 10000 kPa	731.7 ± 0.4	742.2 ± 0.4	761 ± 0.4	783.2 ± 0.4	792.8 ± 0.4	830.8 ± 0.4	931.6 ± 0.3	1018.5 ± 0.4
308.15 K, 20000 kPa	739 ± 0.5	749.7 ± 0.5	768.6 ± 0.4	790.9 ± 0.4	801.1 ± 0.4	840 ± 0.4	941.1 ± 0.3	1027.6 ± 0.4
308.15 K, 30000 kPa	745.6 ± 0.5	756.4 ± 0.5	775.6 ± 0.5	798.3 ± 0.5	808.4 ± 0.5	848.4 ± 0.4	949.7 ± 0.3	1035.9 ± 0.4
308.15 K, 40000 kPa	751.8 ± 0.6	762.6 ± 0.6	782.1 ± 0.6	804.9 ± 0.5	815.3 ± 0.5	856.1 ± 0.5	957.8 ± 0.4	1043.7 ± 0.4
